Laboratory results reported in US20040175763A1, “Crohn's disease antibody-binding peptide and method of examining crohn's disease” (priority 2001, published 2004).
No end group written: not given here.

Legend:
Crohn's disease antibody [1] = assay: Reaction inhibition test with one amino acid-substituted MAP peptides on CDP3 MAP plate (Example 6(2)); type: binding, human; conditions: inhibitor MAP peptide 100 μg/mL
Description: Referring to the amino acid sequence of CDP peptide, in order to determine the sequence necessary for the specific reactivity to Crohn's disease antibody, the following reaction inhibition test was performed using each of the one amino acid-substituted MAP peptides prepared as above as the reaction inhibitor.
More particularly, using the MAP plate prepared by immobilizing the MAP peptide of CDP3 (see Example 2(1)) as the antigen plate, the test was performed by 3 reaction steps. In the primary reaction, the Crohn's disease patient serum was diluted 100-fold with a sample diluent containing the one amino acid-substituted MAP peptide in a concentration of 100 μg/mL (0.1 M Tris-buffer containing 0.5 M sodium chloride, 1.5% casein, 2% normal goat serum and 0.2% Tween 20) and reacted at 25° C. for one hour. In the secondary reaction, 100 μL/well of the primary reaction mixture was added to the plate and reacted at 25° C. for one hour, after which the plate was washed 3 times. In the tertiary reaction, 100 μL/well of HRP-labeled anti-human IgG (Fc)-specific antibody diluted 5,000-fold in an enzyme-labeled antibody diluent (Tris buffer containing 0.14 M sodium chloride, 0.5% BAS, 5% normal goat serum and 0.05% Tween 20) was added to the plate, and reacted at 25° C. for 1 hour, followed by 3 rounds of washing. Detection was performed as in Example 2(1) to measure the reaction-inhibiting activity of the one amino acid-substituted MAP peptide.

[2] = tested on: Crohn's disease antibody (serum antibodies); assay: MAP antigen-ELISA of Z300 peptide (Example 6(4)); type: binding, human
Description: Therefore, in order to confirm that human nuclear protein (HZF300) is a protein simulated or mimicked by CDP3 peptide, the peptide (Z300 peptide) having the amino acid sequence of the 126-138 amino acid region of HZF300 was prepared in the form of a MAP peptide and the MAP antigen ELISA was carried out using 20 Crohn's disease patient serum samples, 20 ulcerative colitis patient serum samples, and 20 healthy volunteer serum samples.
First, each human serum was diluted 101-fold with the sample diluent (described hereinbefore) and 100 μL/well of the solution was added to the MAP plate prepared by immobilizing the said MAP peptide. Then, the procedure of the secondary reaction and subsequent operation described in Example 6(2) was followed to investigate the reactivity of the MAP peptide to various kinds of serum antibodies.

[3] = tested on: Crohn's disease patient serum antibody; assay: Phage ELISA of CD-binding peptide display phage clones with serum samples; design: species or system human; conditions: 20 Crohn's disease, 20 ulcerative colitis, 20 healthy volunteer serum samples
Description: Using the monoclonal CD-binding peptide display phage obtained as above, phage ELISA was carried out with the same healthy volunteer serum pool and Crohn's disease patient serum pool as used in the above biopanning (cf. (i)).
In the ELISA, an anti-phage antibody (Pharmacia) was immobilized on a 96-well microtiter plate in the first place. Specifically, this immobilization was carried out by adding an anti-phage antibody (Pharmacia) solution prepared in a 1 μg/ml concentration with (D)-PBS, to the plate, 100 μl per well. The plate was left sitting at 4° C. overnight and then washed, and after addition of 300 μl of blocking solution ((D)-PBS containing 1% BSA and 5% sorbitol), further left sitting at 4° C. overnight.
The primary reaction was carried out as follows. Thus, 10 μl of the phage solution in (ii) was added to 90 μl of phage ELISA buffer ((D)-PBS containing 1% BSA, 0.05% Tween 20 and 10% normal goat serum), the mixture was added to each well coated with said anti-phage antibody, and the reaction was conducted at 37° C. for 1 hour. After completion of the primary reaction, the plate was washed 4 times and the secondary reaction was carried out. The secondary reaction was performed by adding the mixture containing 1 μl of serum (healthy volunteer serum or Crohn's disease patient serum) and 100 μl of phage ELISA buffer, to each well, and allowing the reaction to proceed at 37° C. for 1 hour. After completion of the secondary reaction, the plate was washed 4 times and the tertiary reaction was carried out. The tertiary reaction was conducted by adding HRP (horseradish peroxidase)-labeled anti-human IgG (Fc)-specific antibody, diluted 40,000-fold in phage ELISA buffer (20 ng/ml) in advance, to the plate, 100 μl per well, and allowing the reaction to proceed at 37° C. for one hour. After completion of the tertiary reaction, the plate was washed and a color development reaction was carried out. The color development was conducted by adding TMB (3,3′,5,5′-tetramethylbenzidine) solution to the plate, allowing the reaction to proceed at room temperature for 10 minutes, and stopping the reaction with a stopper (1N sulfuric acid). The plate after reaction stopping was measured for absorbance (OD 450 nm) with a plate reader to evaluate the reactivity with the serum antibody.
For the 5 clones thus selected, the reactivity (ELISA) with the respective serum samples (Crohn's disease patient serum, ulcerative colitis patient serum, and healthy volunteer serum) was evaluated.

[4] = tested on: Crohn's disease antibody (serum IgG); assay: MAP peptide ELISA of CDP-1a, CDP-5a and VATE-201 (Example 4); type: binding, human; conditions: 20 Crohn's disease, 20 ulcerative colitis, 20 healthy volunteer serum samples
Source text: Therefore, the following peptides (CDP-1a peptide, CDP-5a peptide, VATE-201 peptide) were respectively synthesized in the MAP form (multiple antigenic peptides) by the same procedure as described in Example 1(3) (FIG. 9), and in accordance with the protocol of Example 2(1), the reactivity of each MAP peptide to various serum samples (Crohn's disease patient sera, ulcerative colitis patient sera and healthy volunteer sera) was investigated by ELISA.
As test sera, 20 Crohn's disease patient serum samples were used and, as control sera, 20 ulcerative colitis serum samples and 20 healthy volunteer serum samples were used.

[5] = tested on: Crohn's disease antibody (serum antibodies); assay: MAP antigen-ELISA of TO3965 peptide (Example 7(4)); type: binding, human; conditions: for reactions with ulcerative colitis patient sera and healthy volunteer sera: 20 ulcerative colitis, 20 healthy volunteer serum samples
Description: At this junction, in order to endorse the assumption that rice allergen proteins are proteins simulated or mimicked by CDP4 peptide, a peptide (TO3965 peptide) having an amino acid sequence corresponding to the 99-111 amino acid region of Rice seed allergen RA14 (FIG. 16) was prepared in the form of a MAP peptide and the MAP antigen-ELISA was performed using 20 Crohn's disease patient serum samples, 20 ulcerative colitis patient serum samples, and 20 healthy volunteer serum samples.
Except that a MAP antigen plate prepared by immobilizing the MAP peptide of TO3965 on the plate was used as the antigen plate, the MAP antigen-ELISA was carried out in otherwise the same manner as in Example 6(4).

Crohn's disease antibody [6] = assay: Test for inhibition of the antigen-antibody reaction between CDP-1a peptide and Crohn's disease antibody (Example 5); type: binding, human; conditions: sera No. 8, No. 9, No. 14; reaction inhibitor 100 μg/ml
Description: To confirm the reactivity of VATE-201 obtained in Example 4, a test for inhibition of the antigen-antibody reaction between CDP-1a peptide and Crohn's disease antibody was carried out using VATE-201 peptide.
More particularly, the MAP plate prepared by immobilizing CDP-1a MAP peptide was used as the antigen plate (see Example 2(1)). On the other hand, 1 μL of each serum sample was added to 100 μL of a casein solution ((D)-PBS containing 0.1% casein and 1% Triton X-100) containing the MAP peptide of VATE-201 (reaction inhibitor) at a concentration of 100 μg/ml and the reaction was carried out at 37° C. for one hour. The whole amount of the reaction mixture thus obtained was added to the above MAP plate and ELISA was performed in the same manner as in Example 2(1). As a comparative experiment, using the MAP peptide of CDP-1a in lieu of the MAP peptide of VATE-201 as said reaction inhibitor, ELISA was carried out in otherwise the same manner.

Crohn's disease antibody [7] = assay: Test for inhibition of the antigen-antibody reaction between CDP4 peptide and Crohn's disease antibody using TO3965 peptide (Example 7(5)); type: binding, human; conditions: sera Nos. 3, 6, 15, 17 and 20
Description: To confirm the reactivity of TO3965 peptide to Crohn's disease antibody, a test for inhibition of the antigen-antibody reaction between CDP4 peptide and Crohn's disease antibody was performed using TO3965 peptide as a reaction inhibitor as in Example 6(5).

Crohn's disease antibody [8] = assay: Test for inhibition of the antigen-antibody reaction between CDP3 peptide and Crohn's disease antibody using Z300 peptide (Example 6(5)); type: binding, human; conditions: sera No. 2, No. 7, No. 8; inhibitor 100 μg/ml
Description: To verify the reactivity of Z300 peptide to Crohn's disease antibodies, a test for inhibition of the antigen-antibody reaction between CDP3 peptide and Crohn's disease antibody was performed using Z300 peptide.
More particularly, the MAP plate prepared by immobilizing the MAP peptide of CDP3 on a plate (Example 2(1)) was used. To 100 μL of the sample diluent containing 100 μg/ml of Z300 MAP peptide (reaction inhibitor) was added 1 μL of the serum sample and the reaction was carried out at 25° C. for one hour. The whole amount of this reaction mixture was added to the plate and ELISA was performed in the same manner as in Example 6(2). As a comparative experiment, ELISA was similarly performed using the MAP peptide of CDP3, in lieu of the MAP peptide of Z300, as said reaction inhibitor.

[9] = biological target: Crohn's disease patient serum No. 7 (serum antibody); assay: inhibition ELISA; serum pre-incubated with 100 ug/mL MAP peptide, then CDP3 MAP plate; grade of reaction-inhibiting activity
[10] = biological target: Crohn's disease patient serum No. 8 (serum antibody); assay: as above
[11] = biological target: Crohn's disease patient serum No. 2 (serum antibody); assay: as above

Molecule: A E G E L R Q S D G Q Y Q M (AEGELRQSDGQYQM) [CDP3]
- reaction-inhibiting activity, Patient serum sample No. 2 (Crohn's disease antibody [1]): +++ (+++: reaction-inhibiting activity = 70%)
- reaction-inhibiting activity, Patient serum sample No. 7 (Crohn's disease antibody [1]): +++ (+++: reaction-inhibiting activity = 70%)
- reaction-inhibiting activity, Patient serum sample No. 8 (Crohn's disease antibody [1]): +++ (+++: reaction-inhibiting activity = 70%)
- reactivity of Crohn's disease patient sera to the peptide ([2]; Crohn's disease patient serum No. 2, No. 7 and No. 8): strong reactivity

Molecule: AEGEL RQSDGQYQM GDPA [CD-3]
- specificity to Crohn's disease patient serum (phage ELISA reactivity) [3]: high specificity to Crohn's disease patient serum

Molecule: AEGEL YRWLPPSSA GDPA [CD-2]
- specificity to Crohn's disease patient serum (phage ELISA reactivity) [3]: high specificity to Crohn's disease patient serum

Molecule: AEGELGLLAQQMDYADP [CDP-1a]
- ELISA reactivity to serum samples [4]: ELISA reactivities mutually alike

Molecule: AEGELRLVGQQVMQGDP [CDP-5a]
- ELISA reactivity to serum samples [4]: ELISA reactivities mutually alike

Molecule: CDP4: equivalent of CD4 peptide, SEQ ID NO:34 (AEGELGGIYQDLVS; Phage Library)
- reactions with ulcerative colitis patient sera and healthy volunteer sera [5]: did not show definite reactions
- reactivity of Crohn's disease patient sera to the peptide ([5]; Crohn's disease patient serum Nos. 3, 6, 15, 17 and 20): strong reactivity

Molecule: RLDLIAQQMMPEVR [VATE-201]
- ELISA reactivity to serum samples [4]: ELISA reactivities mutually alike
- inhibition of the reactivity of Crohn's disease serum samples with the CDP-1a MAP plate (Crohn's disease antibody [6]): invariably inhibited the reactivity

Molecule: TO3965: peptide with the amino acid sequence of the 99-111 amino acid region of Rice seed allergen RA14, SEQ ID NO:42 (HMVGGIYRELGAT; Rice; Rice Seel Allergen RA14)
- reactions with ulcerative colitis patient sera and healthy volunteer sera [5]: did not show definite reactions
- inhibition of the reactivity of Crohn's disease patient serum samples to the CDP4 MAP plate (Crohn's disease antibody [7]): inhibition everything of the reactivity

Molecule: Z300: peptide having the amino acid sequence of the 126-138 amino acid region of HZF300, SEQ ID NO:31 (LVCQGDGQLQRFL; Kruppel-like Zinc Finger Protein 300; listed as Homo sapiens)
- reactions with ulcerative colitis patient sera and healthy volunteer sera ([2]; 20 ulcerative colitis, 20 healthy volunteer serum samples): did not show definite reactions
- inhibition of the reactivity of Crohn's disease patient sera to the CDP3 MAP plate (Crohn's disease antibody [8]): inhibited the reactivity of all Crohn's disease patient sera

B1: MAP peptide of CDP3-9 (peptide)
peptide: AEGELRQSAGQYQM
modifications: also: MAP: 8 copies as branches on a lysine core
- reaction-inhibiting activity [9]: 30 to 50%

B2: MAP peptide of CDP3-13 (peptide)
peptide: AEGELRQSDGQYAM
modifications: also: MAP: 8 copies as branches on a lysine core
- reaction-inhibiting activity [10]: 50 to 70%
- reaction-inhibiting activity [11]: 30 to 50%

B3: MAP peptide of CDP3-10 (peptide)
peptide: AEGELRQSDAQYQM
modifications: also: MAP: 8 copies as branches on a lysine core
- reaction-inhibiting activity [11]: 30 to 50%

B4: MAP peptide of CDP3-11 (peptide)
peptide: AEGELRQSDGAYQM
modifications: also: MAP: 8 copies as branches on a lysine core
- reaction-inhibiting activity [9]: 30 to 50%
